Measurements published in patent publication US20250195603A1, “COMPOSITION FOR PREVENTING OR TREATING DENTAL CARIES” (HYSENSBIO CO., LTD., priority 2022, published 2025).

Tests used:
Assay type in all cases: cell-based
human dental pulp cells [1] = assay: Expression of inflammatory factors (RT-PCR) in LPS-treated human dental pulp cells; details: 10 μg/mL LPS only
Experimental: To confirm the preventive and therapeutic effects of a pharmaceutical composition (KH002) in stage 4 dental caries in which inflammation occurred after cells are affected by dental caries, human dental pulp cells were treated with lipopolysaccharide (LPS) and the pharmaceutical composition (KH002), and the expression of inflammatory factors was compared.
(§1) All experiments using human pulp cells were approved by the Institutional Review Board (IRB; S-D20140007) of the Seoul National University Dental Hospital and conducted in accordance with the guidelines and regulations of the institution. The third molars (wisdom teeth) were extracted from patients who signed the consent forms at the Seoul National University Dental Hospital, and pulp cells were isolated using a previously reported method (Choung et al., 2016). The teeth were cut open, the internal pulp was separated using forceps, and the pulp tissue was finely minced into 60-mm diameter cell culture dishes. […]
A reverse transcription polymerase chain reaction (RT-PCR) was performed to compare the expression of inflammatory factors, and the ratio of the expression level of each factor to the expression level of glyceraldehyde 3-phosphate dehydrogenase (GAPDH) was confirmed for quantitative comparison (FIG. 3).

human pulp cells = assay: Wound-healing model of human pulp cells (scratch); details: LPS only, 24 hours after scratch
Experimental: Human pulp cells were inoculated in a 6-well plate at 1×10^5 cells/well, and the next day, the central portion was scratched with the tip of a 200 μL pipette, and the rate of cell growth was compared 24 hours later.
as §1, with “dishes. The finely minced pulp tissue was then covered with a cover glass and cultured in a cell culture medium to isolate human pulp cells.” for “dishes.”
Cell photographs were taken using an optical microscope using a 10× objective lens, and the photographs were analyzed using the ImageJ software program.

human dental pulp cells [2] = assay: Mineralization ability of human dental pulp cells (alizarin red S); details: LPS alone
Experimental: To this end, human dental pulp cells were inoculated in each 6-well dish at 1×10^5 cells/well and then cultured in a differentiation medium containing ascorbic acid (50 μg/mL) and beta-glycerophosphate (10 mM) for 7, 14, and 21 days from the next day.
as §1, with “dishes. The finely minced pulp tissue was then covered with a covered glass and cultured in a cell culture medium to isolate human pulp cells.” for “dishes.”
To compare the amount of mineralized matrix, the samples were fixed overnight at 4° C. with 4% paraformaldehyde (PFA), then treated with 40 mM alizarin red S (pH 4.2) at 25° C. for 30 minutes. After that, 0.5 mL of sodium dodecyl sulfate dissolved in 0.5 N hydrochloric acid was applied, and the samples were placed on a shaker for 30 minutes, and the absorbance was measured at 405 nm.

human dental pulp cells [3] = assay: Viability of human dental pulp cells in inflammatory environment (MTT); details: 10 μg/mL LPS alone, vs negative control
Experimental: To measure the cell viability, human dental pulp cells were inoculated in a 96-well plate at 5×10^3 cells/well and treated with 150 μL of a 3-(4,5-dimethyl-2-thiazolyl)-2,5-diphenyl-tetrazolium bromide (MTT, Medifab Co. Ltd.) solution for about two hours on days 1, 3, and 5, and the absorbance of the solution dissolved in DMSO was measured at 570 nm.
as §1, with “dishes. The finely minced pulp tissue was then covered with a cover glass and cultured in a cell culture medium to isolate human pulp cells.” for “dishes.”

## lipopolysaccharide [LPS]
Human dental pulp cells [1]
  expression of inflammatory factors TNF-α, IL-1α, IL-1β, IL-6, CXCL10, iNOS, and COX2 (ratio to GAPDH): significantly increased
Human pulp cells
  wound healing ability as a ratio to the control group: about 50 % of the control group
Human dental pulp cells [2]; day 21, compared to control group
  size of the mineral nodules: significantly decreased
Human dental pulp cells [2]; days 7, 14, and 21, compared to control group
  amount of mineralized matrix: significantly decreased
Human dental pulp cells [3]
  viability of dental pulp cells: significant decrease
